Assay results: patent publication US9902696B2, “1,4-substituted piperidine derivatives” (Cephalon, Inc., priority 2015, dated 2018)
Where a name gives a salt, the structure may show the parent alone.

What follows are compounds tested against T1, recombinant human baculovirus-expressed GST-tagged FASN (Homo sapiens, UniProt P49327) (assay: FASN enzyme activity assay, fluorescence-based detection of CoA with CPM). Conditions: 5 nM FASN, 150 μM NADPH, 10 μM acetyl-CoA, 25 μM malonyl-CoA, 90 minutes incubation; read-out: IC50 data for Additional Compounds of Formulae I-V(a): Activity.
T1 construct: GST
Assay type: biochemical
Source text: FASN Enzyme activity may be determined by detecting coenzyme A (CoA), a product of FASN-catalyzed synthesis of palmitate from acetyl-CoA and malonyl-CoA with NADPH as a cofactor. The assay is fluorescence-based and measures the interaction of free CoA with 7-diethylamino-3-(4′-malemimidylphenyl)-4-methylcoumarin (CPM; Life Technologies, CA) as described in Chung et al (2008). The coumarin derivative CPM contains a thiol-reactive maleimide that becomes fluorescent upon interaction with the sulfhydryl group of CoA.
For the example compounds described herein, the reaction was performed in 384-well low volume non-binding plates (Corning, N.Y.) using recombinant human baculovirus-expressed GST-tagged FASN. The 20-μL assay mixture contained 50 mM HEPES (pH 7.5), 5 nM FASN, 150 μM NADPH (Sigma, St. Louis, Mo.), 10 μM acetyl-CoA (Sigma), 25 μM malonyl-CoA (Sigma) and test compound [diluted in dimethyl sulfoxide (DMSO); 0.5% DMSO final in assay after 100 nL addition]. See, Chung et al.; “A fluorescence-based thiol quantification assay for ultra-high-throughput screening for inhibitors of coenzyme A production,” Assay Drug Dev Tech 2008; 6:361-374.
The reaction was initiated by adding malonyl-CoA, followed by incubation for 90 minutes at […]. A stock solution of the CPM reagent was prepared in DMSO at […] and stored at […]. To detect CoA produced in the FASN reaction, the CPM stock was diluted to […] in 70% ethanol and added at 4 μL/well to the assay plate. The reaction mixture was then incubated for 30 minutes. Fluorescence was measured using the EnVision™ 2102 multi-label plate reader (PerkinElmer, Waltham, Mass.) utilizing a general dual mirror, a 390 nm excitation filter and a 530 nm emission filter. Data analysis was performed using ActivityBase (IDBS, Guilford, UK). IC50 values were calculated by plotting the percent inhibition versus log 10 of the concentration of the compound, and fitting to the nonlinear regression sigmoidal dose-response (variable slope) equation in XLFit (IDBS).

T1 sequence (P49327 whole entry): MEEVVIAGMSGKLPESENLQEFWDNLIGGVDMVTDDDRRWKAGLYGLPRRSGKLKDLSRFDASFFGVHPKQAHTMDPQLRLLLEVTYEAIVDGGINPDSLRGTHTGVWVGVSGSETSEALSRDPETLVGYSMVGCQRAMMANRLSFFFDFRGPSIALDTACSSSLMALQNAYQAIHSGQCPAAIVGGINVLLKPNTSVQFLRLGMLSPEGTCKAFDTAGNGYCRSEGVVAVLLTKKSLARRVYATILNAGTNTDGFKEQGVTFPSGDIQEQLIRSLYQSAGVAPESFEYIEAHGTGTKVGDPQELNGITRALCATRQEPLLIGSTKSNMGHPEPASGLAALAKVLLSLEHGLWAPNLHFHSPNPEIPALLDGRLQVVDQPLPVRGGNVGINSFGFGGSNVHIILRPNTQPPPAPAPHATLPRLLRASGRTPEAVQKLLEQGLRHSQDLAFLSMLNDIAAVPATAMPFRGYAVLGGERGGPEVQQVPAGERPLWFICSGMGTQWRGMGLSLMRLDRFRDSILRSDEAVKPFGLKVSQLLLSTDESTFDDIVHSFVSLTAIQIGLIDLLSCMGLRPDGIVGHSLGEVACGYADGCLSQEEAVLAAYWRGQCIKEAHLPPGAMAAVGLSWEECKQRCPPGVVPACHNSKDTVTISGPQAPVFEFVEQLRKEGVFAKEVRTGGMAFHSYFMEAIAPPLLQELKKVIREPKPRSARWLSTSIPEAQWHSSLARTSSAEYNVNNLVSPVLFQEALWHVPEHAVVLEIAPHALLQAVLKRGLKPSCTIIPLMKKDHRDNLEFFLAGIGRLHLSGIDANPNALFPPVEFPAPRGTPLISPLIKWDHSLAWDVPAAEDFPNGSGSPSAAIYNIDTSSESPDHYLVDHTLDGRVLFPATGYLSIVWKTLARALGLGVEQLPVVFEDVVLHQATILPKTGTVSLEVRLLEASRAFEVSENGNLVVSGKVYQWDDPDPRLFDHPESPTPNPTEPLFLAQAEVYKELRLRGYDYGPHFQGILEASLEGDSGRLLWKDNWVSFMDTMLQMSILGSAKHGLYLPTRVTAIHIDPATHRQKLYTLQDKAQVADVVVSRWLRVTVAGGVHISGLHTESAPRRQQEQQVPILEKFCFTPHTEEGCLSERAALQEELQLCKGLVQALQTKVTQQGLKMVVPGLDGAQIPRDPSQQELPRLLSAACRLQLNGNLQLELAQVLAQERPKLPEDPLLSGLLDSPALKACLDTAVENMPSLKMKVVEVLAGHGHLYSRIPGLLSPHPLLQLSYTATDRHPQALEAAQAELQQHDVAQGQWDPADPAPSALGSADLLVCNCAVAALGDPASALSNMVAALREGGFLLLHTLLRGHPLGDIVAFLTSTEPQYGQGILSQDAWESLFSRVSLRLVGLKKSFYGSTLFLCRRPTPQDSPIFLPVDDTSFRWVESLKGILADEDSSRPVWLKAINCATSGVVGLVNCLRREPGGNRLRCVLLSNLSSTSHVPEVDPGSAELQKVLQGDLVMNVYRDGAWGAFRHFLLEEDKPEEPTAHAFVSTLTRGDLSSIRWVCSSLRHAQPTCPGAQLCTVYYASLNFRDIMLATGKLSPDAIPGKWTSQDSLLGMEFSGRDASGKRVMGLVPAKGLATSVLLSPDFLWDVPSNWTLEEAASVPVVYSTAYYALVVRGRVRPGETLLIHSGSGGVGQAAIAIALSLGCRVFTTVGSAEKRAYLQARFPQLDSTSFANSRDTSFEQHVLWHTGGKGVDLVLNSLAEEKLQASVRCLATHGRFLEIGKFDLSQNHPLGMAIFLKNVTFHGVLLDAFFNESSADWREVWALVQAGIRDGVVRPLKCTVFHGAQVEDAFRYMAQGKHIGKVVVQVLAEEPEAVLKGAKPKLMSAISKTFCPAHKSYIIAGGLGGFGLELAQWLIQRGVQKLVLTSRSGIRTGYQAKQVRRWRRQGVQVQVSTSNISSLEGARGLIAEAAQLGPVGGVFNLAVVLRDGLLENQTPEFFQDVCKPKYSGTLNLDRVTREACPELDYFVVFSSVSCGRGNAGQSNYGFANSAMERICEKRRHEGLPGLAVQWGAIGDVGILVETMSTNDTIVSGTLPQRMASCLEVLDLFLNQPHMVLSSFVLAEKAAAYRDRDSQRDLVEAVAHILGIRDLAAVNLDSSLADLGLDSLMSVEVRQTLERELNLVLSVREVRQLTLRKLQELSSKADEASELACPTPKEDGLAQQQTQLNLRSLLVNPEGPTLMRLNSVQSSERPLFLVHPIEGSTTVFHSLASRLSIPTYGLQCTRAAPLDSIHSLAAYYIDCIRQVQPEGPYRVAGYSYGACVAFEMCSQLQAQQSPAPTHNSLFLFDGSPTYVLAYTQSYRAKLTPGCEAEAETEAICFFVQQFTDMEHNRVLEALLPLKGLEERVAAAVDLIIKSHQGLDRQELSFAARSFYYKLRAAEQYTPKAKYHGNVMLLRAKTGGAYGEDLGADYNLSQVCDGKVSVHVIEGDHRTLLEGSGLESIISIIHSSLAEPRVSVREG

Which IC50 does the source give for `Cc1c(-c2ccc(OC3CCN(C(=O)OCC(C)C)CC3)cc2)ccc2cccnc12` [Example 550, Isobutyl 4-[4-(8-methyl-7-quinolyl)phenoxy]piperidine-1-carboxylate, HCl] here?
Its IC50 is 1 to 10 µM.

Which IC50 does the source give for `Cc1c(-c2ccc(OC3CCN(C(=O)NCC(F)(F)F)CC3)cc2)ccc2nccn12` [Example 606, 4-[4-(5-Methylimidazo[1,2-a]pyridin-6-yl)phenoxy]-N-(2,2,2-trifluoro-ethyl)piperidine-1-carboxamide] here?
The IC50 was 1 to 10 µM.

`Cc1c(-c2ccc(OC3CCN(C(=O)Nc4cccnc4)CC3)cc2)ccc2nccn12` [Example 596, 4-[4-(5-Methylimidazo[1,2-a]pyridin-6-yl)phenoxy]-N-(3-pyridyl)piperidine-1-carboxamide] was tested. Which IC50 did it give?
The IC50 was 0.001 to 0.099 µM.

For `Cc1c(-c2ccc(OC3CCN(C(=O)NCCN4CCOCC4)CC3)cc2)ccc2cccnc12` [Example 531, 4-[4-(8-Methyl-7-quinolyl)phenoxy]-N-(2-morpholinoethyl)piperidine-1-carboxamide HCl], which IC50 is on record?
Its IC50 is 1 to 10 µM.

How did the IC50 turn out when `CCONC(=O)N1CCC(Oc2ccc(-c3ccc4nccn4c3Cl)cc2)CC1` [Example 573, 4-[4-(5-Chloroimidazo[1,2-a]pyridin-6-yl)phenoxy]-N-ethoxy-piperidine-1-carboxamide] was run?
Its IC50 is 1 to 10 µM.

Same assay, conditions: 5 nM FASN, 150 μM NADPH, 10 μM acetyl-CoA, 25 μM malonyl-CoA, 90 minutes incubation; read-out: IC50 data for Compounds of Formulae I-V/V(a): Activity

`O=C(C1CC1)N1CCC(Oc2ccc(-c3ccc4cccnc4c3)nc2)CC1` [Example 146, Cyclopropyl-[4-(6-quinolin-7-yl-pyridin-3-yloxy)-piperidin-1-yl]-methanone, 2HCl] was tested. Which IC50 did it give?
The IC50 was 1 to 10 µM.

How did the IC50 turn out when `CC1(C(=O)N2CCC(Oc3ccc(-c4cnc5ccccc5c4)cc3)CC2)CCCO1` (centres unmarked) [Example 115, (2-Methyltetrahydrofuran-2-yl)-[4-(4-quinolin-3-yl-phenoxy)-piperidin-1-yl]-methanone, HCl] was run?
The IC50 was 0.1 to 0.999 µM.

Which IC50 does the source give for `CCC(=O)N1CCC(Oc2ccc(-c3ccc4cccnc4c3C#N)cc2)CC1` [Example 330, 7-[4-(1-Propionyl-piperidin-4-yloxy)-phenyl]-quinoline-8-carbonitrile] here?
The IC50 was 0.1 to 0.999 µM.

`Cc1c(-c2ccc(O[C@H]3CCN4C(=O)CC[C@H]4C3)cc2)ccc2cccnc12` (racemic) [Example 355, (±)-(7S,8aS)-7-(4-(8-Methylquinolin-7-yl)phenoxy)hexahydroindolizin-3 (2H)-one] was tested. Which IC50 did it give?
Its IC50 is 1 to 10 µM.

With `Cc1c(-c2ccc(OC3CCN(C(=O)C4(N)CC4)CC3)cc2)ccc2nccn12` [Example 305, (1-Aminocyclopropyl)-{4-[4-(5-methyl-imidazo[1,2-a]pyridin-6-yl)-phenoxy]-piperidin-1-yl}-methanone] as the compound, how does the IC50 read?
The IC50 was 0.1 to 0.999 µM.

For `CN1CCN(c2c(-c3ccc(OC4CCN(C(=O)[C@H]5CCCO5)CC4)cc3)cnc3ccccc23)CC1` [Example 240, (4-{4-[4-(4-Methylpiperazin-1-yl)-quinolin-3-yl]-phenoxy}-piperidin-1-yl)-(R)-tetrahydrofuran-2-yl-methanone], which IC50 is on record?
Its IC50 is 1 to 10 µM.

`CCC(=O)N1CCC(Oc2ccc(-c3ccc4cccnc4c3C)cc2)CC1C` (mixture of isomers) [Example 363, 1-{2-Methyl-4-[4-(8-methylquinolin-7-yl)-phenoxy]-piperidin-1-yl}-propan-1-one, HCl] was tested. Which IC50 did it give?
Its IC50 is 0.1 to 0.999 µM.

Which IC50 does the source give for `Cc1c(-c2ccc(OC3CCN(C(=O)N4CCCC4)CC3)cc2)ccc2cccnc12` [Example 94, [4-[4-(8-methyl-7-quinolyl)phenoxy]-1-piperidyl]-pyrrolidin-1-yl-methanone] here?
The IC50 was 0.001 to 0.099 µM.

For `COc1cccc2ncc(-c3ccc(OC4CCN(C(=O)C5CC5)CC4)cc3)cc12` [Example 464, Cyclopropyl-{4-[4-(5-methoxyquinolin-3-yl)-phenoxy]-piperidin-1-yl}-methanone], which IC50 is on record?
Its IC50 is 1 to 10 µM.

`CCC(=O)N1CCC(Oc2ccc(-c3cnc4ccccc4c3C)cc2)CC1` [Example 60] was tested. Which IC50 did it give?
The IC50 was 0.001 to 0.099 µM.

Which IC50 does the source give for `CCC(=O)N1CCC(Oc2ccc(-c3cnc4cccc(C)c4c3)cc2)CC1` [Example 460, 1-{4-[4-(5-Methylquinolin-3-yl)-phenoxy]-piperidin-1-yl}-propan-1-one, HCl] here?
The IC50 was 0.1 to 0.999 µM.

With `CC(C)Oc1cc2cc(-c3ccc(OC4CCN(C(=O)[C@H]5CCCO5)CC4)cc3)ccc2cn1` [Example 451, {4-[4-(3-Isopropoxyisoquinolin-6-yl)-phenoxy]-piperidin-1-yl}-(R)-tetrahydrofuran-2-yl-methanone] as the compound, how does the IC50 read?
Its IC50 is 0.001 to 0.099 µM.

`O=C(C1CC1)N1CCC(Oc2ccc(-c3cnc4ccccc4c3)c(Cl)c2)CC1` [Example 205, [4-(3-Chloro-4-quinolin-3-yl-phenoxy)-piperidin-1-yl]-cyclopropyl-methanone] was tested. Which IC50 did it give?
Its IC50 is 0.001 to 0.099 µM.

With `CCC(=O)N1CCC(Oc2ccc(-c3cc(OC)c4ccnn4c3)cc2)CC1` [Example 410, 1-{4-[4-(4-Methoxypyrazolo[1,5-a]pyridin-6-yl)-phenoxy]-piperidin-1-yl}-propan-1-one, HCl] as the compound, how does the IC50 read?
Its IC50 is 0.1 to 0.999 µM.

For `CCC(=O)N1CCC(Oc2ccc(-c3cccc(-c4ccccn4)c3C)cc2)CC1` [Example 406, 1-[4-(2′-Methyl-3′-pyridin-2-yl-biphenyl-4-yloxy)-piperidin-1-yl]-propan-1-one; TFA salt], which IC50 is on record?
Its IC50 is 1 to 10 µM.

How did the IC50 turn out when `COc1cc(-c2cnc3ccccc3c2)ccc1OC1CCN(C(=O)C2CC2)CC1` [Example 198, Cyclopropyl-[4-(2-methoxy-4-quinolin-3-yl-phenoxy)-piperidin-1-yl]-methanone] was run?
The IC50 was 1 to 10 µM.

How did the IC50 turn out when `CCC(=O)N1CCC(Oc2ccc(-c3ccc4cccnc4c3NC)cc2)CC1` [Example 326, 1-{4-[4-(8-Methylaminoquinolin-7-yl)-phenoxy]-piperidin-1-yl}-propan-1-one] was run?
Its IC50 is 0.1 to 0.999 µM.

For `CCC(=O)N1CCC(Oc2ccc(-c3cn4ccnc4cc3C)cc2)CC1` [Example 293, 1-{4-[4-(7-Methylimidazo[1,2-a]pyridin-6-yl)-phenoxy]-piperidin-1-yl}-propan-1-one], which IC50 is on record?
The IC50 was 1 to 10 µM.

How did the IC50 turn out when `COc1ccc2cc(-c3ccc(OC4CCN(C(=O)C5CC5)CC4)cc3)cnc2c1` [Example 34, Cyclopropyl-{4-[4-(7-methoxyquinolin-3-yl)-phenoxy]-piperidin-1-yl}-methanone] was run?
Its IC50 is 0.001 to 0.099 µM.

With `O=C(C1CC1)N1CCC(Oc2ccc(-c3cnc4ccccc4c3)c(F)c2)CC1` [Example 202, Cyclopropyl-[4-(3-fluoro-4-quinolin-3-yl-phenoxy)-piperidin-1-yl]-methanone] as the compound, how does the IC50 read?
The IC50 was 0.001 to 0.099 µM.

With `CCOC(=O)N1CCC(Oc2ccc(-c3ccc4cccnc4c3C)cc2)CC1` [Example 90, Ethyl 4-[4-(8-methyl-7-quinolyl)phenoxy]piperidine-1-carboxylate] as the compound, how does the IC50 read?
The IC50 was 0.1 to 0.999 µM.

How did the IC50 turn out when `O=C(C1CC1)N1CCC(Oc2ccc(-c3ccc4c(Cl)nccc4c3)cc2)CC1` [Example 420, {4-[4-(1-Chloroisoquinolin-6-yl)-phenoxy]-piperidin-1-yl}-cyclopropyl-methanone] was run?
The IC50 was 0.1 to 0.999 µM.

Which IC50 does the source give for `O=C(C1CCC1)N1CCC(Oc2ccc(-c3ccc(-c4ccccc4)nc3)cc2)CC1` [Example 381, Cyclobutyl-{4-[4-(6-phenyl-pyridin-3-yl)-phenoxy]-piperidin-1-yl}-methanone] here?
Its IC50 is 0.1 to 0.999 µM.

With `CCNC(=O)N1CCC(Oc2ccc(-c3ccc4cccnc4c3C)cc2)CC1` [Example 88, N-ethyl-4-[4-(8-methyl-7-quinolyl)phenoxy]piperidine-1-carboxamide] as the compound, how does the IC50 read?
Its IC50 is 0.001 to 0.099 µM.

`O=C(C1CC1)N1CCC(Oc2ccc(-c3ccc4cnccc4c3)nc2)CC1` [Example 149, Cyclopropyl-[4-(6-isoquinolin-6-yl-pyridin-3-yloxy)-piperidin-1-yl]-methanone, 2HCl] was tested. Which IC50 did it give?
Its IC50 is 1 to 10 µM.

`Cc1c(-c2ccc(OC3CCN(C(=O)[C@H]4CCCO4)CC3)cc2)ccc2ncnn12` [Example 311, {4-[4-(5-Methyl-[1,2,4]triazolo[1,5-a]pyridin-6-yl)-phenoxy]-piperidin-1-yl}-(R)-tetrahydrofuran-2-yl-methanone] was tested. Which IC50 did it give?
Its IC50 is 0.001 to 0.099 µM.

With `CCC(=O)N1CCC(Oc2ccc(-c3cccc(Oc4ccccc4)c3)cc2)CC1` [Example 510, 1-[4-(3′-Phenoxybiphenyl-4-yloxy)-piperidin-1-yl]-propan-1-one] as the compound, how does the IC50 read?
Its IC50 is 1 to 10 µM.

With `O=C(C1CC1)N1CCC(Oc2ccc(-c3ccc(Cl)c(Cl)c3)cc2)CC1` [Example 501, Cyclopropyl-[4-(3′,4′-dichlorobiphenyl-4-yloxy)-piperidin-1-yl]-methanone] as the compound, how does the IC50 read?
Its IC50 is 1 to 10 µM.

For `CCC(=O)N1CC[C@@H](Oc2ccc(-c3ccc4cccnc4c3)cc2)C1` [Example 344, (R)-1-(3-(4-(Quinolin-7-yl)phenoxy)pyrrolidin-1-yl)propan-1-one, HCl], which IC50 is on record?
Its IC50 is 0.1 to 0.999 µM.

For `O=C(C1CC(F)(F)C1)N1CCC(Oc2ccc(-c3cnc4ccccc4c3)cc2)CC1` [Example 119, (3,3-Difluorocyclobutyl)-[4-(4-quinolin-3-yl-phenoxy)-piperidin-1-yl]-methanone], which IC50 is on record?
The IC50 was 1 to 10 µM.
